# Key:
# [1] = test system: 2B4 cells; test: 2B4 cell viability with dexamethasone by Annexin V; type: cell-based, murine; settings: 24 hours
# From the text: Cells were stained with fluorescent conjugates of Annexin-V (BioVision) and propidium iodide (PI) and analyzed on a FACSCalibur machine (Becton-Dickinson).
# [2] = biological target: T1, BCL-2:BIM complex (Homo sapiens, UniProt P10415); test: BCL-2 immunoprecipitation from treated primary CLL cells; type: cell-based; settings: 100 nM, 24 hours
# T1 construct: A BCL-2 antibody was used to immunoprecipitate BCL-2 from CLL lysates from four independent patient samples; endogenous in cells; host or cells: freshly isolated primary human CLL cells
# [3] = biological target: T1, BCL-2:BIM complex; test: Displacement of BIM from immunoprecipitated BCL-2, detergent-free; type: binding; settings: 1 μM, detergent-free conditions
# [4] = test system: SU-DHL4, SU-DHL6, SU-DHL8, SU-DHL 10; test: Lymphoma cell line sensitivity to agents; type: cell-based; settings: four lymphoma cell lines compared
# Description: Only cells that are dependent on BCL-2 for survival are predicted to respond to BCL-2 antagonists like ABT-737. […] To test this, cells were treated with vincristine.
# [5] = biological target: T2, BCL-w (Homo sapiens, UniProt Q92843); settings: cited from earlier work
# T2 sequence (Q92843 1-193): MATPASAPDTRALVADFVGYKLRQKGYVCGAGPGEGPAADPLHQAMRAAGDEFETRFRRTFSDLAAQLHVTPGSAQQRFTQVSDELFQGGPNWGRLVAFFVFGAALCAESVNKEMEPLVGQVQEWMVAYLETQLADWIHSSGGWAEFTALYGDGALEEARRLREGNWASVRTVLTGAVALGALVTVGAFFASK
# T1 sequence (P10415 whole entry, one chain of several): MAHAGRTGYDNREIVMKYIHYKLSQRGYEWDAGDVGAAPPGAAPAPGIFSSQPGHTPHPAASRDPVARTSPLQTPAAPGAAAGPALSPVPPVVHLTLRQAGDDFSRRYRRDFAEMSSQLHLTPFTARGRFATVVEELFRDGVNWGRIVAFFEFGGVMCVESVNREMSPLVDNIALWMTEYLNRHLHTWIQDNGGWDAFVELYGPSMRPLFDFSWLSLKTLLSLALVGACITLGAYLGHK
smiles,measurement,setting,value
CN(C)CC[C@H](CSc1ccccc1)Nc1ccc(S(=O)(=O)NC(=O)c2ccc(N3CCN(Cc4ccccc4-c4ccc(Cl)cc4)CC3)cc2)cc1[N+](=O)[O-] [ABT-737],effect on cell survival,[1]; BCL-2-protected dexamethasone-treated 2B4 cells,very sensitive to ABT-737
same,effect on cell survival,[1]; MCL-1-protected dexamethasone-treated 2B4 cells,has no effect
same,amount of BIM bound to BCL-2,[2],causes a dramatic reduction in the amount of BIM bound to BCL-2
same,displacement of BIM from BCL-2 into the supernatant,[3],displaces BIM from BCL-2 into the supernatant
same,cell sensitivity to the agent,[4],BH3 profiling accurately predicted response to ABT-737
same,affinity to BCL-w,[5],sub-nanomolar range

# From patent publication US11215608B2, “Methods of determining cellular chemosensitivity” (Dana-Farber Cancer Institute, Inc., priority 2006, dated 2022)
